According to patent publication US20030032674A1, “Use of unsaturated fatty acids to treat severe inflammatory diseases” (priority 2001, published 2003):

Legend:
[1] = system: COX-2 expression; test: COX-2 immunoblot (Western blot) in RAW 264.7 cells; assay type: cell-based, murine; conditions: RAW 264.7; 75 μM fatty acid
Description: (§1) Cell culture—RAW 264.7 cells (a murine macrophage-like cell line, ATCC TIB-71), 293T cells (a human embryonic kidney cell line, provided by Sam Lee, Beth Israel Hospital. Boston, Mass.), and HT-29 cells (a human colon adenocarcinoma cell line, ATCC HTB-38) were cultured in Dulbecco's modified Eagle's medium (DMEM) containing 10% (v/v) heat-inactivated fetal bovine serum (FBS, Intergen) and 100 units/ml Penicillin and […] Streptomycin (GIBCO-BRL) at 37° C. in a 5% CO2/air environment. Cells (2×10^6) were plated in 60-mm dishes and cultured for an additional 18 hours to allow the number of cells to approximately double. Cells were maintained in serum-poor (0.25% FBS) medium for another 18 hours prior to the treatment with indicated reagents.
Preparation of fatty acids-albumin complexes—All fatty acids were solubilized in ethanol, and then combined with fatty acid-free and low-endotoxin BSA at a molar ratio of 10:1 (fatty acid: albumin) in serum-poor medium (0.25% FBS). Fatty acids-albumin complex solution was freshly prepared prior to each experiment.
Sodium dodecyl sulfate-polyacrylamide gel electrophoresis (SDS-PAGE) and immunoblotting—These procedures were performed as previously described in D. Hwang et al., “Expression of mitogen-inducible cyclooxygenase induced by lipopolysaccharide: mediation through both mitogen-activated protein kinase and NF-kappaB signaling pathways in macrophages,” Biochem. Pharmacol., vol. 54, pp. 87-96 (1997). Briefly, solubilized proteins were subjected to 8% SDS-PAGE for COX-2, iNOS, IL- 1α and GAPDH immunoblot analyses. Following electrophoresis, the gel was transferred to a PVDF membrane and the membrane was blocked to prevent non-specific binding of antibodies in TBS-T [20 mM Tris HCl, 137 mM NaCl, 0.05% (v/v) Tween 20, pH 7.6] containing 5% non-fat dried milk (Carnation). Immunoblotting was performed using respective polyclonal antibodies followed by incubation with anti-rabbit IgG coupled to horseradish peroxidase. The membrane was exposed on an X-ray film (Kodak) using ECL western blot detection reagents (Amersham).
After 11 h, cell lysates were analyzed by COX-2, iNOS, IL-1α, or GAPDH immunoblot using a Western blot analysis.
The cell lysates were analyzed by COX-2 or GAPDH immunoblot.
RAW 264.7 cells were pretested with various concentrations (5, 10, 20, and 50 μM) of docosahexaenoic acid (C22:6n-3) for 3 hours, and then stimulated with LPS (100 ng/ml) for 8 hours and analyzed by COX-2, iNOS, IL-1 a or GAPDH immunoblot.
Cells stably transfected with NFκB(5×) or COX-2 promoter reporter genes were pretreated with various concentrations of each fatty acid for 3 hrs. Cells were then treated with LPS (200 ng/ml). After 8 hrs, cell lysates were prepared and luciferase activities were determined. Data are expressed as a percentage of LPS treatment alone. The results for NFκB and COX-2 expression are given in FIGS. 8A and 8B, respectively. The values are mean±SEM (n=3) of RLA, relative luciferase activity. In FIG. 8C, the cells were pretreated with DHA (20 μM) or C12:0 (75 μM) for 3 hrs and further stimulated with LPS (200 ng/ml for DHA; 1 ng/ml for C12:0). After 8 hr, cell lysates were analyzed by COX-2 and actin immunoblotting.

[2] = system: MyD88(CA); test: NFκB reporter in 293T cells transfected with constitutively active MyD88; assay type: cell-based, human
Text: Plasmids and DNA Constructs—All plasmids and constructs were obtained or made as reported in either S. H. Rhee and D. Hwang, “Murine TOLL-like receptor 4 confers lipopolysaccaride responsiveness as determined by activation of NFκB and expression of the inducible cyclooxygenase,” Journal of Biological Chemistry, vol. 275, pp. 34035-34040 (2000); and J. Y. Lee et al., “Saturated fatty acids, but not unsaturated fatty acids, induce the expression of cyclooxygenase-2 mediated through TOLL-like receptor 4,” Journal of Biological Chemistry, vol. 276, pp. 16683-16689 (2001). Briefly, the luciferase reporter plasmids (pGL2) containing the promoter region of the murine COX-2 gene (−3201/+93 or −1017/+93) were provided by David Dewitt (Michigan State University, East Lansing, Mich.). To prepare the wild-type COX-2 promoter fragment, polymerase chain reaction (PCR) was performed with the primers named Kpn-COX2-For and Hind-COX2-Rev using the murine COX-2 (−1017/+93) luciferase reporter plasmid as a template. To prepare the mutant COX-2 promoter fragment containing mutated NFκB site, Kpn-COX2-Fmut and Hind-COX2-Rev were used as primers. Each PCR fragment was inserted into the KpnI and HindIII sites of pGL2 to generate the wild-type or mutant COX-2 (−410/+86) luciferase reporter constructs, respectively. Sequences for wild-type NFκB site and the primers were used as reported elsewhere. […]

[3] = system: COX-2 expression; test: COX-2 immunoblot in TNFα-treated HT-29 colon cancer cells; assay type: cell-based, human; conditions: pretreated 3 hours, TNFα 20 ng/ml 8 hours
Description: as §1
Sodium dodecyl sulfate-polyacrylamide gel electrophoresis (SDS-PAGE) and immunoblotting—These procedures were performed as previously described in D. Hwang et al., “Expression of mitogen-inducible cyclooxygenase induced by lipopolysaccharide: mediation through both mitogen-activated protein kinase and NF-kappaB signaling pathways in macrophages,” Biochem. Pharmacol., vol. 54, pp. 87-96 (1997). […]
Colon cancer cells (HT-29) were pretested with various concentrations of docosahexaenoic acid (C22:6n-3) for 3 hours and then treated with TNFα (20 ng/ml) for 8 hours. Cell lysates were analyzed by COX-2 and GAPDH immunoblot.

[4] = molecular target: T1, COX-2 (Ovis aries, UniProt P79208); conditions: cited from earlier work
T1 sequence (P79208 17-603): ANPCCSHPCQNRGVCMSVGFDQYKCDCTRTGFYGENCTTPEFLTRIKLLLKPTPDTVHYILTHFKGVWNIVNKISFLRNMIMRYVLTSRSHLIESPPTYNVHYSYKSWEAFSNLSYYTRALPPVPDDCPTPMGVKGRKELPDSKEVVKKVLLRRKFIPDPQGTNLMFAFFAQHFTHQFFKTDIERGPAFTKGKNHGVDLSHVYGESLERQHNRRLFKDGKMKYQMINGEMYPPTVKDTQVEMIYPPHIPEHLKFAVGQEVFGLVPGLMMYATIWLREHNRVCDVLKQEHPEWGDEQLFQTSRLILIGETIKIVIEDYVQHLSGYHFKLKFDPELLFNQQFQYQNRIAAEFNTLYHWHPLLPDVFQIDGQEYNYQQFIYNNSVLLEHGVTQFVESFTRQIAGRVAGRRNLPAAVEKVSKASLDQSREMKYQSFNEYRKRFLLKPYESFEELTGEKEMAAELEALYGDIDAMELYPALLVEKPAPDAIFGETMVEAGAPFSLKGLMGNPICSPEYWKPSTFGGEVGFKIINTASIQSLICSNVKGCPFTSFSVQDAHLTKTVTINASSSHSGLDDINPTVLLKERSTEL

[5] = system: COX-2 promoter; test: COX-2 promoter luciferase reporter gene assay, transiently transfected RAW 264.7 cells; assay type: cell-based, murine
Text: Plasmids and DNA Constructs—All plasmids and constructs were obtained or made as reported in either S. H. Rhee and D. Hwang, “Murine TOLL-like receptor 4 confers lipopolysaccaride responsiveness as determined by activation of NFκB and expression of the inducible cyclooxygenase,” Journal of Biological Chemistry, vol. 275, pp. 34035-34040 (2000); and J. Y. Lee et al., “Saturated fatty acids, but not unsaturated fatty acids, induce the expression of cyclooxygenase-2 mediated through TOLL-like receptor 4,” Journal of Biological Chemistry, vol. 276, pp. 16683-16689 (2001). Briefly, the luciferase reporter plasmids (pGL2) containing the promoter region of the murine COX-2 gene (−3201/+93 or −1017/+93) were provided by David Dewitt (Michigan State University, East Lansing, Mich.). To prepare the wild-type COX-2 promoter fragment, polymerase chain reaction (PCR) was performed with the primers named Kpn-COX2-For and Hind-COX2-Rev using the murine COX-2 (−1017/+93) luciferase reporter plasmid as a template. To prepare the mutant COX-2 promoter fragment containing mutated NFκB site, Kpn-COX2-Fmut and Hind-COX2-Rev were used as primers. Each PCR fragment was inserted into the KpnI and HindIII sites of pGL2 to generate the wild-type or mutant COX-2 (−410/+86) luciferase reporter constructs, respectively. Sequences for wild-type NFκB site and the primers were used as reported elsewhere. (See Lee et al., 2001). The 2×NFκB-luciferase reporter construct was a gift from Frank Mercurio (Signal Pharmaceuticals, San Diego, Calif.). HSP70-β-galactosidase reporter plasmid was a gift from Robert Modlin (University of California, Los Angeles, Calif.). The expression plasmids for a constitutively active form of TLR4 (DTLR4) and a dominant-negative mutant, DTLR4 (P712H) were prepared as previously described. See S. H. Rhee et al., 2000. The expression plasmid of the wild-type NFκB-inducing kinase (NIK), pRK-NIK(wt) was a gift from Mike Rothe (Tularik, South San Francisco, Calif.). The dominant-negative mutant of inhibitor kB (pCMV4-IkBa(DN)) was provided by Dean Ballard (Vanderbilt University, Nashville, Tenn.). 4×NFκB-luciferase reporter construct was purchased from Clontech (Palo Alto, Calif.) and used for transient transfection. Heat shock protein 70 (HSP70)-β-galactosidase reporter plasmid was from Robert Modlin (University of Calif., Los Angeles, Calif.). The expression plasmids for a wild-type TLR2 and a dominant-negative mutant [TLR2 (P681H)] were from C. B. Wilson (University of Washington, Seattle, Wash.). Constitutively active chimeric CD4-TLR4 was obtained from C. A. Janeway, Jr. (Yale University, New Haven, Conn.). The constitutively active form of MyD88 (MyD88(ΔToll)) and the dominant-negative mutant, MyD88(ΔDD) were kindly provided by Jurg Tschopp (University of Lausanne, Switzerland). The dominant-negative mutant of mouse PPARg [pCMX-PPARg(L466A/L467A)] was a gift from Ira Schulman (Ligand Pharmaceuticals, San Diego, Calif.). All DNA constructs were prepared in large scale using the EndoFree Plasmid Maxi kit (Qiagen, Chatsworth, Calif.) for transfection.
Transient transfection and luciferase assay—These procedures were performed as described in S. H. Rhee et al., “Murine TOLL-like receptor 4 confers lipopolysaccharide responsiveness as determined by activation of NFκB and expression of the inducible cyclooxygenase,” J. Biol. Chem., vol. 275, pp. 34035-34040 (2000); and J. H. Paik et al., “Two opposing effects of non-steroidal anti-inflammatory drugs on the expression of the inducible cyclooxygenase, Mediation through different signaling pathways,” J. Biol. Chem., vol. 275, pp. 28173-28179 (2000). Briefly, RAW 264.7 cells were plated in 6-well plates (5×10^5 cells/well) and transfected with luciferase reporter plasmids and HSP70-β-galactosidase plasmid as an internal control using SuperFect transfect reagent (Quiagen) according to the manufacturer's instructions. […]

[6] = system: NFκB; test: NFκB luciferase reporter gene assay, transiently transfected RAW 264.7 cells; assay type: cell-based, murine; conditions: PamCAG 1 μg/ml, 18 hr
[7] = molecular target: T2, TLR2 (Homo sapiens, UniProt O60603); test: NFκB reporter in TLR2-transfected 293T cells; assay type: cell-based; conditions: PamCAG 1 μg/ml, 18 hr
T2 construct: expressed in transfected cells; host or cells: 293T (stated not to express TLR2)
Text: Plasmids and DNA Constructs—All plasmids and constructs were obtained or made as reported in either S. H. Rhee and D. Hwang, “Murine TOLL-like receptor 4 confers lipopolysaccaride responsiveness as determined by activation of NFκB and expression of the inducible cyclooxygenase,” Journal of Biological Chemistry, vol. 275, pp. 34035-34040 (2000); and J. Y. Lee et al., “Saturated fatty acids, but not unsaturated fatty acids, induce the expression of cyclooxygenase-2 mediated through TOLL-like receptor 4,” Journal of Biological Chemistry, vol. 276, pp. 16683-16689 (2001). Briefly, the luciferase reporter plasmids (pGL2) containing the promoter region of the murine COX-2 gene (−3201/+93 or −1017/+93) were provided by David Dewitt (Michigan State University, East Lansing, Mich.). To prepare the wild-type COX-2 promoter fragment, polymerase chain reaction (PCR) was performed with the primers named Kpn-COX2-For and Hind-COX2-Rev using the murine COX-2 (−1017/+93) luciferase reporter plasmid as a template. To prepare the mutant COX-2 promoter fragment containing mutated NFκB site, Kpn-COX2-Fmut and Hind-COX2-Rev were used as primers. […]
Acylation by saturated fatty acids of bacterial lipopeptides is also required for the activation of TLR2. […] After 18 hr, luciferase activities were determined. […]

T2 sequence (O60603 21-784, species assumed): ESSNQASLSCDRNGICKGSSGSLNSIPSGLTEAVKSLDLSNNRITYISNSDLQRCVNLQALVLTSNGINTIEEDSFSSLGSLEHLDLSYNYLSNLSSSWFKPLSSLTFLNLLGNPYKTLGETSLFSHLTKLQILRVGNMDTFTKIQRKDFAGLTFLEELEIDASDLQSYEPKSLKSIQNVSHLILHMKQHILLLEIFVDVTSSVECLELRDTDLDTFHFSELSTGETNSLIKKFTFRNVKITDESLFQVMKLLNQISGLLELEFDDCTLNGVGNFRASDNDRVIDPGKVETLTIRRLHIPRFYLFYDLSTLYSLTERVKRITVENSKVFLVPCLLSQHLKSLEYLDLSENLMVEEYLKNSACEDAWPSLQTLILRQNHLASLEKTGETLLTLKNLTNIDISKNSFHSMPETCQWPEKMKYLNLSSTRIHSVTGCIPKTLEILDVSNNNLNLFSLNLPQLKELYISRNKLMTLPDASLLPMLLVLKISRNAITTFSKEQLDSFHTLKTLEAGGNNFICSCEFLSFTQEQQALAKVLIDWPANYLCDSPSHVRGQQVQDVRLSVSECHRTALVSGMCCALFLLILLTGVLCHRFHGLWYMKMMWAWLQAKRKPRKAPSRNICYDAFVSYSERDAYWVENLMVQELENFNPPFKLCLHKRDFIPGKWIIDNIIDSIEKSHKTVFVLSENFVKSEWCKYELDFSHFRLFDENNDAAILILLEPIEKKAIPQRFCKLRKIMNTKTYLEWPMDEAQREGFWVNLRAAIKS

Compound | COX-2 expression induced by fatty acid (immunoblot) [1] | effect on COX-2 (inhibition) [4] | also measured
CCCCC/C=C\C/C=C\C/C=C\C/C=C\CCCC(=O)O [arachidonic acid] | unable to induce COX-2 expression | – | –
CCCCCC/C=C/C=C\CCCCCCCC(=O)O [conjugated linoleic acid, 9(Z), 11(E)-octadecadienoic acid] | unable to induce COX-2 expression | – | –
CC/C=C\C/C=C\C/C=C\C/C=C\C/C=C\C/C=C\CCC(=O)O [docosahexaenoic acid] | – | – | effect on NFκB activation induced by MyD88 [2]: does not inhibit; effect on TNFα-induced COX-2 expression (immunoblot) [3]: failed to inhibit
CCCCC/C=C\C/C=C\CCCCCCCC(=O)O [linoleic acid] | unable to induce COX-2 expression | not as effective | –
CCCCCCCCCCCCCC(=O)O [myristic acid] | – | No effect | –
CCCCCCCC/C=C\CCCCCCCC(=O)O [oleic acid] | unable to induce COX-2 expression | no effect | –
CCCCCCCCCCCCCCCC(=O)O [palmitic acid] | – | No effect | COX-2 expression induced by saturated fatty acids (relative luciferase activity) ([5]; saturated fatty acids C8:0-C18:0, 75 μM each, 24 hr): most potent in inducing COX-2 expression
CCCCCCCCCCCCCCC(=O)O [pentadecanoic acid] | – | No effect | –
CCCCCCCCCCCCCCCCCC(=O)O [stearic acid] | – | No effect | –
CC/C=C\C/C=C\C/C=C\CCCCCCCC(=O)O [α-LA, α-linolenic acid] | – | Inhibitory effects | –
palmitoyl-Cys((RS)-2,3-di(palmitoyloxy)-propyl)-Ala-Gly-OH [PamCAG] | – | – | expression of COX-2 (endogenous TLR2) ([5]; RAW 264.7, PamCAG 1 μg/ml, 18 hr): induced; NFκB activation (endogenous TLR2) [6]: induced; TLR2 activation as determined by NFκB activation [7]: activated TLR2
